From patent US8314112B2 (Novartis AG, priority 2008, dated 2012)

Biological target: T1, human ALK5 (kinase domain, ALK5 T204D) (Homo sapiens, UniProt P36897, T204D)
T1 construct: The kinase domain of human ALK5 (amino acids 200-503); made in house; host or cells: insect cells (baculovirus)
T1 sequence (P36897 200-503 T204D): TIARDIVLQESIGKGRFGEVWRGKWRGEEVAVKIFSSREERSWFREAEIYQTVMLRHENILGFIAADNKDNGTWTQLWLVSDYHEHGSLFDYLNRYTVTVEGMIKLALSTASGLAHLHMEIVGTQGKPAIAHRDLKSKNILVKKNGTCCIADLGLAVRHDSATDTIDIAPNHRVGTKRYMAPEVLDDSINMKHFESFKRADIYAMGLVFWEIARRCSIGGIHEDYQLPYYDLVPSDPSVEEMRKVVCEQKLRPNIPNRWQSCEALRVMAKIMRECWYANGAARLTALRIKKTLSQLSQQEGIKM
Assay: ALK5 kinase assay ([33P] phosphate incorporation into casein)
Format: biochemical
Conditions: casein substrate, 1 μM unlabelled ATP
Protocol: The kinase activity of ALK5 is assessed by measuring radiolabelled phosphate [33P] incorporation in to the generic substrate, casein. The kinase domain of human ALK5 (amino acids 200-503) is fused to an N-terminal histidine tag. The kinase activity of ALK5 is rendered constitutive via point mutation at amino acid 204 (threonine to aspartate modification, ALK5 T204D) and the kinase construct is engineered to be expressed from a baculovirus expression construct in insect cells. The purified, recombinantly-expressed histidine-tagged ALK5 T204D protein is dissolved at 5.4 mg/ml in 50 mM Tris-HCl pH 8.0, 150 mM NaCl, 5 mM DTT. ALK5 T204D is dissolved to 2.5 μg/ml in assay buffer (Assay buffer: 20 mM Tris-HCl pH 7.4, 10 mM MgCl2, 2 mM MnCl2) on the day of use.
Test compounds and reference compounds are dissolved in assay buffer without DTT containing 5% (v/v) DMSO. Stock solutions of test and reference compounds are diluted in assay buffer with DTT (1.25 mM) containing 4.5% (v/v) DMSO. 10 μl of test or reference compound are added to the appropriate wells of 96 well U-bottomed plate. Total enzyme activity is determined by measuring ALK5 T204D activity in the absence of ALK5 kinase inhibitor reference compounds. Non-specific binding (NSB) is determined by measuring the activity of ALK5 T204D in the presence of ALK5 kinase inhibitor reference compounds. 10 μl of dephosphorylated casein stock solution (dephosphorylated casein is dissolved in ddH2O at 20 mg/ml) is added per well (200 μg/well final assay concentration). 20 μl of ALK5 T204D (2.5 μg/ml solution) is added per well (50 ng/well final assay concentration). The plates are left to incubate at room temperature for 10 minutes.
10 μl of ATP mix is added to the well to initiate the reaction (0.66 nM [^33P]ATP/1 μM unlabelled ATP/well final assay concentration). The ATP mix is prepared as follows, unlabelled ATP (3 mM) is dissolved in ddH2O and pH adjusted to 7.4. The stock concentration of [^33P]ATP is 10 μCi/μl. The appropriate volume of [^33P]ATP is added to unlabelled ATP solution such that the final assay concentration per well is 0.1 μCi. Following addition of the ATP mix, the plates are incubated at room temperature for 50 minutes. The kinase reaction is terminated by the addition of 50 μL Stop Buffer (20 mM Tris-HCl pH 7.4, 10 mM EDTA).
75 μl/well from the reaction plate is transferred to a Multiscreen-IP plate (MultiScreen-IP plates are prepared by added 50 μL of 70% (v/v) ethanol per well and incubated for 5 minutes at room temperature. The ethanol is removed by aspiration via a MultiScreen HTS Vaccum Manifold unit (Millipore, Cat no: MSVMHT500). The plates are washed twice by adding 200 μl/well ddH2O). The MultiScreen-IP plate is incubated at room temperature for 30 minutes to allowing binding of casein to the plate. The MultiScreen-IP plates are washed three times by adding 200 μl/well 100 mM phosphoric acid solution and the gasket is carefully removed from the back of the MultiScreen-IP plate and the plate dried in the oven for 30 minutes. The MultiScreen-IP plate is backsealed, 50 μL of Microscint™20 is added, then the plates are topsealed and radiolabelled casein detected and quantified on a TopCount™ plate-reader using the ^33P scintillation protocol.

Row | IC50 [nM] | SMILES
1 | 1180 | c1ccc(-c2nc(-c3cccnc3)c3cc[nH]c3n2)nc1 [Example 1, 4-Pyridin-3-yl-2-pyridin-2-yl-7H-pyrrolo[2,3-d]pyrimidine]
2 | 380 | Cc1cccc(-c2nc(-c3cccnc3)c3cc[nH]c3n2)n1 [Example 2, 2-(6-methyl-pyridin-2-yl)-4-pyridin-3-yl-7H-pyrrolo[2,3-d]pyrimidine]
3 | 130 | COc1cncc(-c2nc(-c3cccc(C)n3)nc3[nH]ccc23)c1 [Example 3, 4-(5-Methoxy-pyridin-3-yl)-2-(6-methyl-pyridin-2-yl)-7H-pyrrolo[2,3-d]pyrimidine]
4 | 34 | Cc1cccc(-c2nc(-c3cncc(-c4ccccc4)c3)c3cc[nH]c3n2)n1 [Example 4, 2-(6-Methyl-pyridin-2-yl)-4-(5-phenyl-pyridin-3-yl)-7H-pyrrolo[2,3-d]pyrimidine]
5 | 115 | COc1ccc(-c2cncc(-c3nc(-c4cccc(C)n4)nc4[nH]ccc34)c2)cc1 [Example 5, 4-[5-(4-Methoxy-phenyl)-pyridin-3-yl]-2-(6-methyl-pyridin-2-yl)-7H-pyrrolo[2,3-d]pyrimidine]
6 | 32 | COc1cccc(-c2cncc(-c3nc(-c4cccc(C)n4)nc4[nH]ccc34)c2)c1 [Example 6, 4-[5-(3-Methoxy-phenyl)-pyridin-3-yl]-2-(6-methyl-pyridin-2-yl)-7H-pyrrolo[2,3-d]pyrimidine]
7 | 45 | Cc1cccc(-c2nc(-c3cncc(-c4ccc(F)cc4)c3)c3cc[nH]c3n2)n1 [Example 7, 4-[5-(4-Fluoro-phenyl)-pyridin-3-yl]-2-(6-methyl-pyridin-2-yl)-7H-pyrrolo[2,3-d]pyrimidine]
8 | 478 | COc1ccccc1-c1cncc(-c2nc(-c3cccc(C)n3)nc3[nH]ccc23)c1 [Example 8, 4-[5-(2-Methoxy-phenyl)-pyridin-3-yl]-2-(6-methyl-pyridin-2-yl)-7H-pyrrolo[2,3-d]pyrimidine]
9 | 13 | Cc1cccc(-c2nc(-c3cncc(-c4ccc(C(=O)N5CCN(C)CC5)cc4)c3)c3cc[nH]c3n2)n1 [Example 9, (4-methyl-piperazin-1-yl)-(4-{5-[2-(6-methyl-pyridin-2-yl)-7H-pyrrolo[2,3-d]pyrimidin-4-yl]-pyridin-3-yl}-phenyl)-methanone]
10 | 50 | Cc1cccc(-c2nc(-c3cncc(-c4cccc(CN5CCN(C)CC5)c4)c3)c3cc[nH]c3n2)n1 [Example 10, 4-{5-[3-(4-Methyl-piperazin-1-ylmethyl)-phenyl]-pyridin-3-yl}-2-(6-methyl-pyridin-2-yl)-7H-pyrrolo[2,3-d]pyrimidine]
11 | 367 | CCNC(=O)c1cncc(-c2nc(-c3cccc(C)n3)nc3[nH]ccc23)c1 [Example 11, N-Ethyl-5-[2-(6-methyl-pyridin-2-yl)-7H-pyrrolo[2,3-d]pyrimidin-4-yl]-nicotinamide]
12 | 345 | Cc1cccc(-c2nc(-c3cncc(C(=O)NCCN(C)C)c3)c3cc[nH]c3n2)n1 [Example 12, N-(2-Dimethylamino-ethyl)-5-[2-(6-methyl-pyridin-2-yl)-7H-pyrrolo[2,3-d]pyrimidin-4-yl]-nicotinamide]
13 | 177 | Cc1cccc(-c2nc(-c3cncc(C(=O)NCCCN(C)C)c3)c3cc[nH]c3n2)n1 [Example 13, N-(3-Dimethylamino-propyl)-5-[2-(6-methyl-pyridin-2-yl)-7H-pyrrolo[2,3-d]pyrimidin-4-yl]-nicotinamide]
14 | 160 | Cc1cccc(-c2nc(-c3cncc(-c4ccc(N5CCN(C(C)C)CC5)cc4)c3)c3cc[nH]c3n2)n1 [Example 15, 4-{5-[4-(4-Isopropyl-piperazin-1-yl)-phenyl]-pyridin-3-yl}-2-(6-methyl-pyridin-2-yl)-7H-pyrrolo[2,3-d]pyrimidine]
15 | 1810 | Cc1cccc(-c2nc(-c3cncc(Br)c3)c3cc[nH]c3n2)n1 [Example 16, 4-(5-bromo-pyridin-3-yl)-2-(6-methyl-pyridin-2-yl)-7H-pyrrolo[2,3-d]pyrimidine]
16 | 929 | Cc1cccc(-c2nc(-c3cncc(-c4ccc(N5CCCCC5)cc4)c3)c3cc[nH]c3n2)n1 [Example 17, 2-(6-Methyl-pyridin-2-yl)-4-[5-(4-piperidin-1-yl-phenyl)-pyridin-3-yl]-7H-pyrrolo[2,3-d]pyrimidine]
17 | 172 | Cc1cccc(-c2nc(-c3cncc(-c4cccc(N5CCCC5)c4)c3)c3cc[nH]c3n2)n1 [Example 18, 2-(6-Methyl-pyridin-2-yl)-4-[5-(3-pyrrolidin-1-yl-phenyl)-pyridin-3-yl]-7H-pyrrolo[2,3-d]pyrimidine]
18 | 45 | Cc1cccc(-c2nc(-c3cncc(-c4ccc(CN5CCN(C)CC5)cc4)c3)c3cc[nH]c3n2)n1 [Example 20, 4-{5-[4-(4-Methyl-piperazin-1-ylmethyl)-phenyl]-pyridin-3-yl}-2-(6-methyl-pyridin-2-yl)-7H-pyrrolo[2,3-d]pyrimidine]
19 | 84 | Cc1cccc(-c2nc(-c3cncc(-c4ccncc4)c3)c3cc[nH]c3n2)n1 [Example 21, 5-[2-(6-Methyl-pyridin-2-yl)-7H-pyrrolo[2,3-d]pyrimidin-4-yl]-[3,4′]bipyridinyl]
20 | 44 | Cc1cccc(-c2nc(-c3cncc(-c4cccnc4)c3)c3cc[nH]c3n2)n1 [Example 22, 5-[2-(6-Methyl-pyridin-2-yl)-7H-pyrrolo[2,3-d]pyrimidin-4-yl]-[3,3′]bipyridinyl]
21 | 14 | Cc1cccc(-c2nc(-c3cncc(-c4cccc(O)c4)c3)c3cc[nH]c3n2)n1 [Example 23, 3-{5-[2-(6-Methyl-pyridin-2-yl)-7H-pyrrolo[2,3-d]pyrimidin-4-yl]-pyridin-3-yl}-phenol]
22 | 34 | Cc1cccc(-c2nc(-c3cncc(-c4ccccc4F)c3)c3cc[nH]c3n2)n1 [Example 24, 4-[5-(2-Fluoro-phenyl)-pyridin-3-yl]-2-(6-methyl-pyridin-2-yl)-7H-pyrrolo[2,3-d]pyrimidine]
23 | 223 | Cc1cccc(-c2nc(-c3cncc(C(=O)NCCCN4CCN(C)CC4)c3)c3cc[nH]c3n2)n1 [Example 25, N-[3-(4-Methyl-piperazin-1-yl)-propyl]-5-[2-(6-methyl-pyridin-2-yl)-7H-pyrrolo[2,3-d]pyrimidin-4-yl]-nicotinamide]
24 | 465 | Cc1cccc(-c2nc(-c3cncc(C(=O)NCCCO)c3)c3cc[nH]c3n2)n1 [Example 26, N-(3-Hydroxy-propyl)-5-[2-(6-methyl-pyridin-2-yl)-7H-pyrrolo[2,3-d]pyrimidin-4-yl]-nicotinamide]
25 | 723 | CCC(=O)Nc1cncc(-c2nc(-c3cccc(C)n3)nc3[nH]ccc23)c1 [Example 27, N-{5-[2-(6-Methyl-pyridin-2-yl)-7H-pyrrolo[2,3-d]pyrimidin-4-yl]-pyridin-3-yl}-propionamide]
26 | 184 | Cc1cccc(-c2nc(-c3cnc4ccccc4c3)c3cc[nH]c3n2)n1 [Example 28, 3-[2-(6-Methyl-pyridin-2-yl)-7H-pyrrolo[2,3-d]pyrimidin-4-yl]-quinoline]
27 | 11 | Cc1cccc(-c2nc(-c3cncc4ccccc34)c3cc[nH]c3n2)n1 [Example 29, 4-[2-(6-Methyl-pyridin-2-yl)-7H-pyrrolo[2,3-d]pyrimidin-4-yl]-isoquinoline]
